Data from patent publication US20240043903A1, “BIOSENSOR USING PET SUBSTRATE, FABRICATION METHOD THEREFOR, AND METHOD FOR INSPECTING SENSITIVITY OF MICROORGANISM TO ANTIBIOTIC BY USING SAME” (priority 2020, published 2024).

Test system: E. coli (ATCC25922)
Assay: Susceptibility test of microorganism to antibiotic by real-time capacitance change on interdigitated-electrode PET biosensor
Format: cell-based, Escherichia coli
Settings: antibiotic 0.5 to 8 μg/mL; for susceptibility of E. coli (ATCC25922) to antibiotic: 10^5 cells/mL; for capacitance change after treatment with antibiotic: E. coli (ATCC25922) 10^5 cells/mL
Description: The strain used in the experiment was Escherichia coli (ATCC25922), and a standard strain was purchased from ATCC of the United States and used. For the culture of the strain, the Mueller-Hinton media (MH media), which is a culture medium recommended by the US standard CLSI and European standard EUCAST, was purchased from DIFCO and used according to the recommended preparation method in the product manual. After culturing the strain in the MH media for 24 hours, the strain culture medium was adjusted to McFarland OD 0.5, and then diluted 1/100 with the culture medium (strain concentration: 5×10^5 to 10^6 cfu/mL) and treated on the sensor.
The susceptibility of microorganisms to antibiotics was measured by using the sensors fabricated in Examples 1 and 2.

[1] = sensor of Example 1 (PET substrate-Ag electrode), FIG. 4b
[2] = sensor of Example 2 (PET substrate-Au electrode), FIG. 5c

CC1(C)S[C@@H]2[C@H](NC(=O)[C@H](N)c3ccccc3)C(=O)N2[C@H]1C(=O)O [ampicillin]
susceptibility of E. coli (ATCC25922) to antibiotic [1]: tolerance (resistance) | capacitance change after treatment with antibiotic [1]: significantly increased capacitance change | susceptibility of E. coli (ATCC25922) to antibiotic [2]: resistance | capacitance change after treatment with antibiotic [2]: capacitance change significantly increased
